# Activity calls are given as the source filed them. No rule for the calls is given here.
# Tested on: Saccharomyces cerevisiae lifespan extension, no nicotinamide
# Experiment: yeast lifespan extension without nicotinamide, confirmation, yeast lifespan extension project, S. cerevisiae (AID 812);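 also: growth read as optical density after 42 hours of incubation at 30C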
row,SMILES,EC50
1,CNC(=O)/C(C#N)=C/c1c(F)cccc1Cl,> 40 µM (inactive)
2,CCCC(=O)Nc1ccccc1Sc1ncnc2scc(-c3ccccc3)c12,> 40 µM (inactive)
3,COC(=O)C1=C(C(=O)OC)C(c2ccccc2O)c2sc(=O)[nH]c2S1 (stereo not given),> 40 µM (inactive)
4,Cc1cc(N=Cc2c(O)ccc3ccccc23)no1,> 40 µM (inactive)
5,Cc1cccc(OC(=O)n2c(=S)oc3cc(Cl)ccc32)c1,> 40 µM (inactive)
6,O=C(/C=C/c1ccccc1)Nc1ncn[nH]1,> 40 µM (inactive)
7,CC1CCCCC1NC(=O)/C(C#N)=C/c1ccccc1F (stereo not given),> 40 µM (inactive)
8,COC(=O)c1sc(S(=O)(=O)Nc2ccc(Br)cc2)c(C(=O)OC)c1C,> 40 µM (inactive)
9,CC(C)n1c(=O)c2c(O)cc(=O)oc2c2ccccc21,> 40 µM (inactive)
10,COn1c(SC2CCCCC2)nc2ccccc2c1=O,> 40 µM (inactive)
11,COCCCNc1c2c3c(cccc3[nH]c1=O)C(=O)c1ccccc1-2,> 40 µM (inactive)
12,Cc1ccccc1NC(=O)c1ccccc1,> 40 µM (inactive)
13,O=C(O)CCCCCN1C(=O)/C(=C\c2ccncc2)SC1=S,> 40 µM (inactive)
14,Cc1n[nH]c(=O)n1-c1cccc(C(F)(F)F)c1,> 40 µM (inactive)
15,CCOC(=O)C1C(c2cccs2)NC(=O)N(C)C1(O)C(F)(F)F (stereo not given),> 40 µM (inactive)
16,CN=C(SCc1cc2c(cc1Cl)OCO2)c1c(O)n(C)c(=O)n(C)c1=O,> 40 µM (inactive)
17,CCCCn1c(NS(=O)(=O)c2ccc(C)cc2)c(C(=O)OCC)c2nc3ccccc3nc21,> 40 µM (inactive)
18,O=C1/C(=C/c2cccnc2)CCC/C1=C\c1cccnc1,> 40 µM (inactive)
19,O=C(/C(=C/c1ccccc1)n1cncn1)c1ccc(Cl)cc1Cl,> 40 µM (inactive)
20,COC(=O)CCS(=O)(=O)c1nc(-c2ccccc2)cc(C(F)(F)F)n1,> 40 µM (inactive)
21,COC(=O)c1cc(OC)c(OC)cc1NC(=S)Nc1cccc(C(C)=O)c1,> 40 µM (inactive)
22,O=C(CS(=O)c1ccc(C(F)(F)F)cc1[N+](=O)[O-])Oc1ccccc1 (stereo not given),> 40 µM (inactive)
23,COc1ccccc1CNC(=O)C(CCSC)NS(=O)(=O)c1ccc2c(c1)oc(=O)n2C (stereo not given),> 40 µM (inactive)
24,C=CCN(CC=C)S(=O)(=O)c1ccc2nc(NC(=O)C(C)C)sc2c1,> 40 µM (inactive)
25,C/C(=N\NC(=O)c1cccnc1)c1c(O)cc(C)oc1=O,> 40 µM (inactive)

row,SMILES,EC50
1,O=C(c1c[nH]c(C(=O)C(Cl)(Cl)Cl)c1)c1ccccc1Cl,7.18 µM
2,Cc1nn(-c2c(Cl)cc(Cl)cc2Cl)c(=O)c2ccccc12,> 40 µM (inactive)
3,COc1ccc(C(CNC(=O)c2cccc(Br)c2)N2CCCC2)cc1 (stereo not given),> 40 µM (inactive)
4,CCCCn1c(=O)c(C(=O)Nc2cnccn2)c(O)c2ccccc21,> 40 µM (inactive)
5,Cc1cccc(N2C(=O)C(Oc3ccc(Cl)cc3Cl)C2C=O)c1C (stereo not given),> 40 µM (inactive)
6,O=C1NC(=O)N(CCC2=CCCCC2)C(=O)/C1=C\c1cccs1,> 40 µM (inactive)
7,O=C1c2ccccc2C(=O)N1Cc1nc2ccccc2c(=O)n1-c1ccc(Br)cn1,> 40 µM (inactive)
8,COc1ccc(CNC(=O)c2c(O)c3cccc4c3n(c2=O)CCC4)cc1,> 40 µM (inactive)
9,CN(C)c1ccc(S(=O)(=O)c2ccc(Cl)cc2)cc1,> 40 µM (inactive)
10,O=S(=O)(CCSc1ccccn1)c1nc2ccccc2s1,> 40 µM (inactive)
11,CCOC(=O)c1nnn(-c2nonc2N)c1CN1CCc2ccccc2C1,> 40 µM (inactive)
12,O=c1c2[nH]c3ccccc3c2ncn1Cc1ccco1,> 40 µM (inactive)
13,Cc1ccc(-c2ccc(/C=C3\C(=O)ON=C3c3ccccc3)o2)c([N+](=O)[O-])c1,> 40 µM (inactive)
14,O=C1Nc2cc(Cl)c(Cl)cc2N(O)N1c1cc(Cl)cc(Cl)c1,> 40 µM (inactive)
15,O=C(Oc1ccc2c(c1)OCO2)C12CC3CC(CC(C3)C1)C2,> 40 µM (inactive)
16,C/C(=N\NC(=O)c1cccc(Cl)c1)C1C(=O)c2ccccc2C1=O,> 40 µM (inactive)
17,C=CCn1c(-c2ccc(OC)cc2)csc1=Nc1c(C)n(C)n(-c2ccccc2)c1=O,> 40 µM (inactive)
18,O=S(=O)(ON(c1ccccc1)S(=O)(=O)c1ccccc1)c1ccccc1,> 40 µM (inactive)
19,COc1ccc(C(=O)On2c(-c3ccc(Br)cc3)nc3ccccc3c2=O)cc1,> 40 µM (inactive)
20,COc1cccc(C2CC3C(=O)C=CC2N3Cc2ccccc2)c1 (stereo not given),> 40 µM (inactive)
21,O=C1C(C2=C(O)c3ccccc3C2=O)=Nc2ccccc21,> 40 µM (inactive)
22,COC(=O)/C(=C/c1cn(C)c2ccccc12)[N+](=O)[O-],> 40 µM (inactive)
23,Cc1cc(C)c(S(=O)(=O)c2ccccc2)c(OC(=O)c2ccc(Cl)cc2Cl)n1,> 40 µM (inactive)
24,COc1cc(Br)cc(-c2nc3c(c(=O)[nH]c(=O)n3Cc3ccccc3)n2C)c1O,> 40 µM (inactive)
25,CCOC(=O)c1[nH]nc(C(=O)c2ccc(Br)cc2)c1O,> 40 µM (inactive)

# — PubChem BioAssay AID812 (SRMLSC, 2007)
